Results taken from patent US11806364B2, “Method for producing myeloid-derived suppressor cells, myeloid-derived suppressor cells produced thereby, and methods thereof” (Industry-Academic Cooperation Foundation, Yonsei University, priority 2017, dated 2023).

Columns and labels:
bone marrow cells [1] = experiment: TLR9 agonist on bone marrow cells of type I IFN receptor knockout mice; format: cell-based; settings: 3 method, day 6
Description: Finally, in order to accurately check the function of type I IFN, bone marrow cells harvested from wild-type mice and type I IFN receptor knockout mice were treated with a TLR9 agonist using the 3 method in Example 1; and on day 6 of culture, degree of formation of PDCA-1^+ M-MDSCs and dendritic cells was evaluated.

bone marrow cells [2] = experiment: Differentiation of bone marrow cells with GM-CSF, proportion of CD11c+ cells; format: cell-based, C57BL/6 mice; settings: for capacity of inhibiting dendritic cells (proportion of CD11c^+ cells): 50 ng/ml, 3 method (initiation of differentiation and day 3), day 6 of culture
Description: Whole bone marrow cells in the femurs were harvested from C57BL/6 mice using a bone marrow harvesting needle. The harvested bone marrow cells were washed with PBS and red blood cells (RBCs) were removed using a red blood cell lysis buffer (Sigma Aldrich). The bone marrow cells were dispensed in a 6-well plate (1×10^6 cells/ml; 2 ml/well) and cultured, under a condition of 5% CO2 and 37° C., in complete RPMI 1640 (c-RPMI 1640) medium supplemented with 100 U/mL of penicillin/streptomycin (Lonza, Basel, Switzerland), 10% fetal bovine serum (Lonza), 50 μM mercaptoethanol (Lonza), 0.1 mM non-essential amino acids (Lonza), and GM-CSF (20 ng/mL). […] On day 3 of culture, the bone marrow cells and 1 ml of c-RPMI 1640 medium were added to each well. On day 6 of culture, the cells were collected and stained with Fluorescein-conjugated CD11c mAb to measure a proportion of CD11c^+ cells. […] In addition, in a case where the 3 method is used, proportions of CD11c^+ cells were checked for respective treatment concentrations of each TLR agonist (TLR2 agonist (Pam3)—1, 10, and 50 ng/ml; TLR3 agonist (Poly I:C)—10, 100, and 500 ng/ml; TLR4 agonist (LPS)—1, 10, and 50 ng/ml; TLR7 agonist (imiquimod)—1, 10, and 50 ng/ml; TLR9 agonist (CPG:ODN)—1, 10, and 50 ng/ml).

bone marrow cells [3] = experiment: Phenotypic analysis of cells induced by TLR stimulation; format: cell-based, C57BL/6 mice; settings: 3 method, culture for 6 days
Description: The results obtained by analyzing phenotypes of cells harvested after treating bone marrow cells with a TLR agonist in the same manner as the 3 method in Example 1 and performing culture for 6 days are illustrated in FIGS. 7 and 8. […] From these expression patterns, it was predictable that the cells induced by differentiation from the bone marrow cells are myeloid-derived suppressor cells (MDSCs).

bone marrow cells [4] = experiment: Cytokines induced at early differentiation stages after TLR stimulation; format: cell-based; settings: for cytokines induced at early differentiation stages: 8, 18, and 36 hours after stimulation with TLR agonist; for IFN-γ, IL-15, IL-1β, TGF-β, IL-4, IL-12p70, IL-10, and FLT2L induction: not shown by data
Description: Hereinafter, experiments were conducted assuming that for respective M-MDSCs induced by differentiation upon treatment with a TLR2 or TLR9 agonist, differences in phenotype, T cell inhibition capacity, regulatory T cell formation capacity, and differentiation into dendritic cells are due to different cytokine secretion induced by each TLR stimulation. Therefore, cytokines induced at early differentiation stages (8, 18, and 36 hours after stimulation with TLR agonist) after treatment of bone marrow cells with a TLR2 or TLR9 agonist were analyzed.

bone marrow cells [5] = experiment: MDSC subtypes by Gr-1, Ly6G and Ly6C expression; format: cell-based, C57BL/6 mice
Description: As illustrated in Example 3, it can be seen that the cells, which have been induced by differentiation from bone marrow cells after TLR stimulation according to the 3 method in Example 1, are MDSCs. On the other hand, subtypes of the MDSCs may be divided into monocytic-MDSCs (M-MDSCs) and granulocytic-MDSCs (G-MDSCs). Gr-1^high cells mostly correspond to G-MDSCs, and Gr-1^low cells may be classified as M-MDSCs.
Thus, for MDSCs harvested after performing culture for 6 days with a Gr-1 antibody using the 3 method in Example 1, an expression level of Gr-1 was checked. The results are illustrated in FIGS. 9 and 10.
Furthermore, in order to accurately classify subtypes of MDSCs, their expression patterns were identified using Ly6G and Ly6C antibodies.

bone marrow cells [6] = experiment: Ly6G/Ly6C expression patterns in C57BL/6 and MyD88^−/− mice; format: cell-based, C57BL/6 mice and C57BL/6 MyD88^−/− mice; settings: MyD88 dependence study, 3 method
Description: In order to identify whether differentiation into respective MDSCs' subtypes is induced in a MyD88-dependent manner, C57BL/6 mice and C57BL/6 MyD88^−/− mice were treated in the same manner as the 3 method in Example 1, and then expression patterns of Ly6G and Ly6C were identified in the same manner as in Example 4 (FIG. 13).

bone marrow cells [7] = experiment: Proportion of CD11c+MHC-II+ cells after TLR agonist treatment, wild type; format: cell-based; settings: C57BL/6 mice, 3 method
Description: Additionally, in order to identify whether an effect of inhibiting differentiation into dendritic cells is induced in a MyD88-dependent manner, C57BL/6 mice and C57BL/6 MyD88^−/− mice were treated with a TLR agonist in the same manner as the 3 method in Example 1, to induce differentiation, and then a proportion of CD11c^+MHC-II^+ cells was measured. The results are illustrated in FIGS. 5 and 6.

Ly6C^+ M-MDSCs = experiment: Ly6C+ M-MDSCs treated with GM-CSF, proportions of CD11c+ cells; format: cell-based; settings: Ly6C^+ M-MDSCs of day 6, GM-CSF for 3 days
Description: Then, GM-CSF was applied in the same manner as in Example 8 and culture was performed for 3 days. Subsequently, proportions of CD11c^+ cells were checked for the respective treatments.
Then, on day 6 of culture, only Ly6C^+ M-MDSCs were collected. Subsequently, GM-CSF was applied in the same manner as in Example 8 and culture was performed for 3 days. Then, proportions of CD11c^+ cells were checked for the respective treatments.

bone marrow cells [8] = experiment: Cytokine applied in place of the TLR agonist, formation of M-MDSCs and dendritic cells; format: cell-based; settings: day 6; for M-MDSCs are formed and differentiation into dendritic cells is inhibited: 3 method
Description: On day 6 of culture, it was identified whether M-MDSCs and dendritic cells are formed.

M-MDSCs = experiment: Secondary differentiation into dendritic cells of M-MDSCs induced with TLR9 agonist plus IL-6 or IL-6 receptor blocker; format: cell-based; settings: GM-CSF 5 days; compared with only TLR9 agonist
Description: In order to identify whether the M-MDSCs induced according to respective treatments as described above are secondarily differentiated into dendritic cells, culture was performed for 5 days in the same manner as the method of inducing differentiation into dendritic cells in Example 8.

bone marrow cells [9] = experiment: IL-6 or IL-6 receptor blocker together with TLR9 agonist, proportions of MDSCs and dendritic cells; format: cell-based; settings: applied together with a TLR9 agonist, 3 method, day 6
Description: In order to evaluate differentiation into M-MDSCs caused by IL-6 and functions of the M-MDSCs, recombinant IL-6 or an IL-6 receptor blocker was applied together with a TLR9 agonist using the 3 method in Example 1, and then the cells were harvested on day 6 of culture. Among the cells harvested according to the respective treatments, proportions of MDSCs and dendritic cells were checked.

ODN1826 [TLR9 agonist]
induction of MDSCs (bone marrow cells [1]): not induced | capacity of inhibiting dendritic cells (proportion of CD11c^+ cells) (bone marrow cells [2]): strongly induced | B220, another marker of pDCs (bone marrow cells [3]): no significant difference | PDCA-1, a marker of plasmacytoid dendritic cells (bone marrow cells [3]): highly induced | cytokines induced at early differentiation stages (bone marrow cells [4]): TNF-α, IL-6, IFN-α, and IFN-β | IFN-γ, IL-15, IL-1β, TGF-β, IL-4, IL-12p70, IL-10, and FLT2L induction (bone marrow cells [4]): not induced | Gr-1^high MDSCs (bone marrow cells [5]; 3 method, 6 days): induced at a high level | Ly6C^high M-MDSCs (X4 cells) (bone marrow cells [5]; Ly6G and Ly6C antibodies): induced | Ly6C^high M-MDSCs (X4 cells) (bone marrow cells [6]): induced | proportion of CD11c^+MHC-II^+ cells (bone marrow cells [7]): decreased

Pam3CSK4 [TLR2 agonist]
capacity of inhibiting dendritic cells (proportion of CD11c^+ cells) (bone marrow cells [2]): strongly induced | cytokines induced at early differentiation stages (bone marrow cells [4]): TNF-α, IL-6, and PGE2 | IL-6 induction (bone marrow cells [4]; as compared with a case of being treated with the TLR9 agonist): remarkably induced | IFN-γ, IL-15, IL-1β, TGF-β, IL-4, IL-12p70, IL-10, and FLT2L induction (bone marrow cells [4]): not induced | differentiation into dendritic cells (proportions of CD11c^+ cells) (Ly6C^+ M-MDSCs): hardly induced | Gr-1^low MDSCs (bone marrow cells [5]; 3 method, 6 days): induced at a high level | Ly6C^int M-MDSCs (X3 cells) (bone marrow cells [5]; Ly6G and Ly6C antibodies): induced | Ly6C^int M-MDSCs (X3 cells) (bone marrow cells [6]): induced | proportion of CD11c^+MHC-II^+ cells (bone marrow cells [7]): decreased

poly I:C [TLR3 agonist]
inhibition of differentiation into dendritic cells (proportions of CD11c^+ cells for respective treatment concentrations) (bone marrow cells [2]; 3 method, 1, 10, 50 ng/ml (TLR3 agonist 10, 100, 500 ng/ml)): not observed

IL-6: recombinant IL-6 protein
M-MDSCs are formed and differentiation into dendritic cells is inhibited (bone marrow cells [8]): in a concentration-dependent manner | M-MDSCs having the phenotype CD11c^−CD11b^+Ly6G^− Ly6C^+PDCA-1^− (bone marrow cells [8]): induced in large quantities | degree of differentiation of M-MDSCs into dendritic cells (M-MDSCs): remarkably decreased | differentiation into PDCA-1^+ M-MDSCs (bone marrow cells [9]): increased | differentiation into dendritic cells (bone marrow cells [9]): further decreased

CC(C)Cn1cnc2c(N)nc3ccccc3c21 [TLR7 agonist, imiquimod]
capacity of inhibiting dendritic cells (proportion of CD11c^+ cells) (bone marrow cells [2]): strongly induced | B220, another marker of pDCs (bone marrow cells [3]): no significant difference | PDCA-1, a marker of plasmacytoid dendritic cells (bone marrow cells [3]): highly induced | Gr-1^high MDSCs (bone marrow cells [5]; 3 method, 6 days): induced at a high level | Ly6C^high M-MDSCs (X4 cells) (bone marrow cells [5]; Ly6G and Ly6C antibodies): induced | Ly6C^high M-MDSCs (X4 cells) (bone marrow cells [6]): induced | proportion of CD11c^+MHC-II^+ cells (bone marrow cells [7]): decreased

IFN-α
M-MDSCs are formed and differentiation into dendritic cells is inhibited (bone marrow cells [8]): in a concentration-dependent manner

CCCCC[C@H](O)/C=C/[C@H]1[C@H](O)CC(=O)[C@@H]1C/C=C\CCCC(=O)O [PGE2]
M-MDSCs are formed and differentiation into dendritic cells is inhibited (bone marrow cells [8]): in a concentration-dependent manner
